Laboratory results as given in paper PMC3341351, “Down-Regulation of GABAA Receptor via Promiscuity with the Vasoactive Peptide Urotensin II Receptor. Potential Involvement in Astrocyte Plasticity” (PLoS ONE, 2012).

Tests used:
[1] = test system: GABAAR in astrocytes (mono-culture); assay: Patch-clamp responsiveness of astrocytes in mono-culture to isoguvacine; type: cell-based, rat; details: Iso 10^−4 M; n = 31
Procedure: Primary cultures of astrocytes were prepared as previously described. Briefly, cerebellum from 7-day-old (P7) Wistar rats were collected in DMEM/Ham-F12 (2∶1, v/v) culture medium supplemented with 2 mM glutamine, 1% insulin, 5 mM HEPES, 0.4% D(+)-glucose and 1% of the antibiotic-antimycotic solution. The tissues were disaggregated mechanically with a syringue equipped with a 1-mm gauge needle, and filtered through a 100-µm pore size mesh filter (Falcon, Becton Dickinson, Grenoble, France). Dissociated cells were resuspended in culture medium supplemented with 10% heat-inactivated FBS and seeded in 150-cm^2 culture flasks (Falcon) at a density of 20×10^6 cells/flask. Cells were incubated at 37°C in a humidified atmosphere (5% CO2) and the medium was changed twice a week. When cultures were confluent, the flasks were gently shaken on an orbital shaker at […] for 2 h. Dislodged cells were discarded and a second step of purification was performed at […] for 14–16 h. Remaining adhesive cells were collected by trypsination, centrifuged (800 g, 10 min) and plated in 150-cm^2 flasks. Suspended astrocytes were harvested and seeded in 24-well poly-L-lysine-coated plates. The purity of the cultures was previously assessed by counting the percentage of astrocytes immunostained with GFAP antibodies. The enriched cultures contained >99% astrocytes. […]

[2] = test system: GABAAR subunit combinations co-expressed with human UT; assay: Patch-clamp of GABA current in CHO co-expressing human UT and combinations of GABAAR subunits; type: cell-based
Procedure: CHO-K1 cell lines were obtained from American Type Culture Collection (Manassas, VA, USA). The human UT stable CHO (CHO-UT) was generously provided by Dr Christophe Dubessy (Inserm, Rouen University, France) et generated by CHO electroporation with 20 µg pIRES-neo2-UT DNA and 500 µg sterile sonicated salmon sperm DNA using the EasyJect One electroporation system (Equibio, Angleur, Belgium), followed by repetitive rounds of limiting dilution of cells in G-418 (400 µg/ml) for selection. Normal or stable CHO was grown in Ham-F12 medium supplemented with 10% FBS, 1% antibiotic-antimicotic solution and 2 mM glutamine, at 37°C in a humidified incubator with an atmosphere of 5% CO2. The stable CHO-UT medium was supplemented with the antibiotic G-418 (40 µg/ml).
For transfection, cells were trypsinized (0.05%), triturated in HamF-12 containing 10% FBS media, pelleted by centrifugation, resuspended in 100 µl solution V for nucleofection by an Amaxa Nucleofector Device (Köln, Germany; set to program U-016). Experiments were performed on normal CHO or on the stable CHO-UT cells and transiently transfected with combinations of cDNA encoding α2β3γ2, α2β3γ1, α2β1γ2, α2β3γ1, α2β3, β3γ2 (4 µg of cDNA total/transfection) GABAAR subunits. Cells were seeded on 14-mm poly-L-lysine-coated glass bottom insert dishes at 5×10^5 cells in a volume of 0.5 ml/dish. […]

[3] = test system: cultured rat cortical astrocytes; parameters: method as in PMID 16942596, PMID 20192922; details: ref [41], [42]; cited from earlier work

Row | Compound | Cells responding to isoguvacine, astrocytes in mono-culture [1] [%] | Activity on αβ binary complexes [2] | Depression of GABA current, order of subunit combinations [2] | Effect on cell proliferation [3]
1 | O=C(O)C1=CCNCC1 [Iso, isoguvacine] | 12 | – | – | –
2 | UII: Urotensin II, species not stated at that place (rUII in astrocytes, hUII in CHO and human cells) | – | inactive | markedly depressed the GABA current (β3γ2>α2β3γ2>α2β1γ2) | stimulates cell proliferation
